Data from US20150065440A1 (Progen Pharmaceuticals Limited, priority 2007, published 2015).

What was measured:
RSV = experiment: Anti-RSV screening assay (viral plaques); type: cell-based; conditions: 100 μg/mL, viral plaques relative to mock treated controls
Method: (§1) African green monkey kidney (GMK AH1) cells^46 were cultured in Eagle's minimum essential medium (EMEM) supplemented with 2% calf serum, 0.05% Primaton RL substance (Kraft Inc., Norwich, USA) and antibiotics. Human epidermoid carcinoma (HEp-2) cells were cultured in Dulbecco's modified EMEM (DMEM) supplemented with 10% fetal calf serum and antibiotics. […] The RSV strain A-2^50 was used. The RSV stock was prepared as described by Hallak et al.^51 and stored at −70° C. in the presence of 40% sucrose^52.
(§2) The viral infectivity (the plaque number-reduction) assay and the plaque size-reduction assay were carried out as described previously^17. […] Subsequently, the cells were washed with 2 mL of EMEM and overlaid with 1% methylcellulose solution in EMEM. The plaques were visualized by staining with crystal violet solution after 2 (HSV-2) or 3 (HSV-1) days of incubation at 37° C. […] When the compounds were screened for anti-HSV or anti-RSV activity, mixtures of 200 PFU of the virus and the test compound (100 μg/mL) in serum-free EMEM were incubated for 10 min at room temperature before addition to cells and during the entire period of viral infection of cells and the development of viral plaques. In the plaque size-reduction assay, the compounds were added to cells (in methylcellulose overlay medium) after 2 h period of virus infection of cells in the absence of the inhibitor. After 2-3 days of incubation at 37° C., the viral plaques were visualized by staining the cells with 1% solution of crystal violet. For each compound tested, the images of twenty neighboring plaques were captured using a Leica DC300 digital camera attached to a Leitz-Wetzlar Diavert microscope. The area of each plaque was determined using IM500 image software (Leica). Similar protocols were used for RSV, except that the assays were performed in HEp-2 cells and DMEM supplemented with 2% heat-inactivated fetal calf serum was used instead of EMEM.

GMK AH1 cells = experiment: Cytotoxicity assay, GMK AH1; type: cell-based, African green monkey; conditions: cell viability reduced by 50%
Method: The assay was performed in GMK AH1 cells that had been seeded in 96 well cluster plates and reached approximately 80-90% confluence at day 2 of culture. The cells were washed with EMEM and incubated for 24 h at 37° C. with 100 μL of serial two-fold dilutions of the test compound in serum-free EMEM. The effect of the test compound on cell viability was measured by using the tetrazolium-based CellTiter96 assay according to the manufacturer's protocol (Promega, Madison, Wis., USA).

HSV-1 = experiment: Viral plaque number-reduction assay, HSV-1; conditions: GMK AH1 cells
Method: as §1, §2

## CC(C)CCCC(C)C1CCC2C3CCC4CC(OC5OC(COS(=O)(=O)O)C(OS(=O)(=O)O)C(OS(=O)(=O)O)C5OC5OC(COS(=O)(=O)O)C(OS(=O)(=O)O)C(OC6OC(COS(=O)(=O)O)C(OS(=O)(=O)O)C(OC7OC(COS(=O)(=O)O)C(OS(=O)(=O)O)C(OS(=O)(=O)O)C7OS(=O)(=O)O)C6OS(=O)(=O)O)C5OS(=O)(=O)O)CCC4(C)C3CCC12C [Compound 20, 3β-Cholestanyl 2,3,4,6-tetra-O-sodium sulfonato-α-D-mannopyranosyl-(1→3)-2,4,6-tri-O-sodium sulfonato-α-D-mannopyranosyl-(1→3)-2,4,6-tri-O-sodium sulfonato-α-D-mannopyranosyl-(1→2)-3,4,6-tri-O-sodium sulfonato-α-D-mannopyranoside]
RSV
  Residual infectivity (%) RSV: 0%
GMK AH1 cells
  Cytotoxicity CC50 GMK AH1: 110 µg/mL
HSV-1
  Selective index CC50/IC50 HSV-1: 52
